Assay results from the supplement of paper PMC11061612.

Assays:
Test in all cases: combination Emax (second highest fraction inhibited in the dose matrix, 72 h); higher = more inhibition; extreme values may be limits of the assay
[1] = tested on: C-33-A (Cervical Carcinoma)
How it was run: (§1)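 Cell lines in DMEM/F12 or RPMI with 10% FBS were plated in 1536-well plates, held 24 hours at 37°C, 5% CO2, then given two-drug dose matrices for 72 hours (DMSO typically 0.2%). Viability was read by CellTiter-Glo 2.0 luminescence and scaled as inhibition from 0 (vehicle wells) to 1 (blank wells). Combination Emax is the second-highest inhibition in the matrix; Bliss excess is observed combination effect minus expected EA + EB − EA·EB, EA and EB being single-agent effects.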

[2] = tested on: TUR (Acute Myeloid Leukemia)
How it was run: as §1

[3] = tested on: SAT (Head and Neck Carcinoma)
How it was run: as §1

[4] = tested on: WM35 (Melanoma)
How it was run: as §1

[5] = tested on: MS-1 (Small Cell Lung Carcinoma)
How it was run: as §1

[6] = tested on: OAW-28 (Ovarian Carcinoma)
How it was run: as §1

[7] = tested on: SCC-4 (Oral Cavity Carcinoma)
How it was run: as §1

[8] = tested on: PA-TU-8988T (Pancreatic Carcinoma)
How it was run: as §1

[9] = tested on: SK-N-SH (Neuroblastoma)
How it was run: as §1

[10] = tested on: NCI-H226 (Mesothelioma)
How it was run: as §1

[11] = tested on: CPC-N (Small Cell Lung Carcinoma)
How it was run: as §1

[12] = tested on: KP-4 (Pancreatic Carcinoma)
How it was run: as §1

[13] = tested on: ZR-75-30 (Breast Carcinoma)
How it was run: as §1

[14] = tested on: P30-OHK (B-Lymphoblastic Leukemia)
How it was run: as §1

[15] = tested on: NCI-H1963 (Small Cell Lung Carcinoma)
How it was run: as §1

[16] = tested on: DBTRG-05MG (Glioblastoma)
How it was run: as §1

[17] = tested on: T84 (Colorectal Carcinoma)
How it was run: as §1

[18] = tested on: NAMALWA (Burkitt's Lymphoma)
How it was run: as §1

[19] = tested on: Raji (Burkitt's Lymphoma)
How it was run: as §1

SMILES | combination Emax [1] | combination Emax [2] | combination Emax [3] | combination Emax [4] | combination Emax [5] | combination Emax [6] | combination Emax [7] | combination Emax [8] | combination Emax [9] | combination Emax [10] | combination Emax [11] | combination Emax [12] | combination Emax [13] | combination Emax [14] | combination Emax [15] | combination Emax [16] | combination Emax [17] | combination Emax [18] | combination Emax [19]
NC1(C(=O)N[C@@H](CCO)c2ccc(Cl)cc2)CCN(c2ncnc3[nH]ccc23)CC1 [Capivasertib] + CC(C)n1c(=O)n(C)c2cnc3cc(F)c(-c4ccc(OCCCN5CCCCC5)nc4)cc3c21 [AZD1390] (first compound max 10 µM, 7x7, partner max 0.3 µM) | 0.675 | 0.809 | 0.555 | 0.259 | 0.307 | 0.119 | 0.227 | 0.278 | 0.349 | 0.335 | 0.399 | 0.355 | 0.419 | 0.176 | 0.434 | 0.243 | 0.367 | 0.44 | 0.185
NC1(C(=O)N[C@@H](CCO)c2ccc(Cl)cc2)CCN(c2ncnc3[nH]ccc23)CC1 [Capivasertib] + CCN(CCO)CCCOc1ccc2c(Nc3cc(CC(=O)Nc4cccc(F)c4)[nH]n3)ncnc2c1 [AZD2811] (first compound max 10 µM, 7x7, partner max 1 µM) | 0.712 | 0.912 | 0.502 | 0.328 | 0.386 | 0.249 | 0.333 | 0.546 | 0.476 | 0.311 | 0.781 | 0.682 | 0.442 | 0.886 | 0.93 | 0.317 | 0.389 | 0.713 | 0.293
NC1(C(=O)N[C@@H](CCO)c2ccc(Cl)cc2)CCN(c2ncnc3[nH]ccc23)CC1 [Capivasertib] + COc1nnc2ccc(N3CCC(c4ccc(OCCN5CCN(C)C(=O)[C@H]5C)cc4)CC3)nn12 [AZD5153] (first compound max 10 µM, 7x7, partner max 1 µM) | 0.779 | 1 | 0.811 | 0.538 | 0.931 | 0.493 | 0.678 | 0.798 | 0.624 | 0.402 | 0.811 | 0.58 | 0.353 | 1 | 0.767 | 0.206 | 0.367 | 0.961 | 0.646
NC1(C(=O)N[C@@H](CCO)c2ccc(Cl)cc2)CCN(c2ncnc3[nH]ccc23)CC1 [Capivasertib] + C[C@@H]1COCCN1C2=NC(=NC(=C2)C3(CC3)[S@](=N)(=O)C)C4=C5C=CNC5=NC=C4 [AZD6738] (first compound max 10 µM, 7x7, partner max 10 µM) | 0.946 | 0.962 | 0.579 | 0.311 | 0.747 | 0.515 | 0.558 | 0.625 | 0.872 | 0.358 | 0.894 | 0.597 | 0.469 | 0.936 | 0.885 | 0.372 | 0.68 | 0.937 | 0.724
NC1(C(=O)N[C@@H](CCO)c2ccc(Cl)cc2)CCN(c2ncnc3[nH]ccc23)CC1 [Capivasertib] + Cn1cnc2c(F)c(Nc3ccc(Br)cc3Cl)c(C(=O)NOCCO)cc21 [Selumetinib] (first compound max 10 µM, 7x7, partner max 10 µM) | 0.803 | 0.924 | 0.677 | 0.782 | 0.267 | 0.268 | 0.778 | 0.689 | 0.333 | 0.316 | 0.332 | 0.483 | 0.501 | 0.186 | 0.492 | 0.431 | 0.539 | 0.387 | 0.192
Cc1nc(Nc2ncc(C(=O)Nc3c(C)cccc3Cl)s2)cc(N2CCN(CCO)CC2)n1 [Dasatinib] + CC(=O)Nc1cccc(-n2c(=O)n(C3CC3)c(=O)c3c(Nc4ccc(I)cc4F)n(C)c(=O)c(C)c32)c1 [Trametinib] (first compound max 2 µM, 7x7, partner max 1 µM) | 0.642 | 0.308 | 0.826 | 0.837 | 0.125 | 0.524 | 0.712 | 0.887 | 0.476 | 0.458 | 0.0279 | 0.735 | 0.0302 | 0.202 | 0.38 | 0.556 | 0.816 | 0.407 | 0.134
COc1cc2ncnc(Nc3ccc(F)c(Cl)c3)c2cc1OCCCN1CCOCC1 [Gefitinib] + CC(C)n1c(=O)n(C)c2cnc3cc(F)c(-c4ccc(OCCCN5CCCCC5)nc4)cc3c21 [AZD1390] (first compound max 10 µM, 7x7, partner max 0.3 µM) | 0.485 | 0.293 | 0.69 | 0.0767 | 0.273 | 0.215 | 0.275 | 0.15 | 0.0891 | 0.0952 | 0.0984 | 0.121 | 0.446 | 0.173 | 0.062 | 0.0768 | 0.227 | 0.214 | 0.162
CS(=O)(=O)CCNCc1ccc(-c2ccc3ncnc(Nc4ccc(OCc5cccc(F)c5)c(Cl)c4)c3c2)o1 [Lapatinib] + C[C@@H](Oc1cc(-c2cnn(C3CCNCC3)c2)cnc1N)c1c(Cl)ccc(F)c1Cl [Crizotinib] (first compound max 10 µM, 7x7, partner max 10 µM) | 0.921 | 0.59 | 0.981 | 0.88 | 0.941 | 0.75 | 0.913 | 0.64 | 0.899 | 0.44 | 0.845 | 0.761 | 0.83 | 0.972 | 0.966 | 0.332 | 0.856 | 0.942 | 0.76
CC(=O)c1c(C)c2cnc(Nc3ccc(N4CCNCC4)cn3)nc2n(C2CCCC2)c1=O [Palbociclib] + CC1(C)CCC(CN2CCN(c3ccc(C(=O)NS(=O)(=O)c4ccc(NCC5CCOCC5)c([N+](=O)[O-])c4)c(Oc4cnc5[nH]ccc5c4)c3)CC2)=C(c2ccc(Cl)cc2)C1 [Venetoclax] (first compound max 10 µM, 7x7, partner max 1 µM) | 0.354 | 0.348 | 0.353 | 0.135 | 0.303 | 0.173 | 0.0364 | 0.141 | 0.465 | 0.176 | 0.106 | 0.383 | 0.101 | 0.866 | 0.922 | 0.114 | 0.079 | 0.537 | 0.436
CC(=O)c1c(C)c2cnc(Nc3ccc(N4CCNCC4)cn3)nc2n(C2CCCC2)c1=O [Palbociclib] + Cc1c2c(nn1C)CSCc1cc(n(C)n1)CSc1cc(c3ccccc3c1)OCCCc1c(C(=O)O)n(C)c3c-2c(Cl)ccc13 [AZD5991] (first compound max 10 µM, 7x7, partner max 1 µM) | 0.467 | 0.621 | 0.821 | 0.208 | 0.609 | 0.277 | 0.202 | 0.229 | 0.575 | 0.204 | 0.264 | 0.412 | 0.26 | 0.811 | 0.534 | 0.169 | 0.119 | 0.956 | 0.704
CC(=O)c1c(C)c2cnc(Nc3ccc(N4CCNCC4)cn3)nc2n(C2CCCC2)c1=O [Palbociclib] + Cn1cnc2c(F)c(Nc3ccc(Br)cc3Cl)c(C(=O)NOCCO)cc21 [Selumetinib] (first compound max 10 µM, 7x7, partner max 10 µM) | 0.457 | 0.379 | 0.549 | 0.718 | 0.416 | 0.344 | 0.377 | 0.514 | 0.371 | 0.232 | 0.14 | 0.509 | 0 | 0.408 | 0.456 | 0.338 | 0.33 | 0.595 | 0.453
C[C@@H](c1ccc2nccn2c1)n1nnc2ncc(-c3cnn(C)c3)nc21 [Savolitinib] + CC1(C)CCC(CN2CCN(c3ccc(C(=O)NS(=O)(=O)c4ccc(NCC5CCOCC5)c([N+](=O)[O-])c4)c(Oc4cnc5[nH]ccc5c4)c3)CC2)=C(c2ccc(Cl)cc2)C1 [Venetoclax] (first compound max 1 µM, 7x7, partner max 1 µM) | 0.0882 | 0.0127 | 0.151 | 0.162 | 0.155 | 0.163 | 0.101 | 0.165 | 0.32 | 0.17 | 0.203 | 0.453 | 0.127 | 0.163 | 0.422 | 0.117 | 0.0875 | 0.213 | 0.171
C[C@@H](c1ccc2nccn2c1)n1nnc2ncc(-c3cnn(C)c3)nc21 [Savolitinib] + Cc1c2c(nn1C)CSCc1cc(n(C)n1)CSc1cc(c3ccccc3c1)OCCCc1c(C(=O)O)n(C)c3c-2c(Cl)ccc13 [AZD5991] (first compound max 1 µM, 7x7, partner max 1 µM) | 0.114 | 0.347 | 0.427 | 0.154 | 0.26 | 0.142 | 0.183 | 0.243 | 0.267 | 0.131 | 0.263 | 0.435 | 0.248 | 0.683 | 0.192 | 0.0768 | 0.103 | 0.956 | 0.751
